From PMC3529809 (Steroids, 2012)
Entries after “also recorded” stand apart in the source; their conditions may differ.

Assays:
[1] = test system: MCF-7 human breast cancer cells; assay: Cell proliferation BrdU assay; assay type: cell-based; settings: 48 h BrdU; 10 nM E2, 5 µM sterols; Fig. 7
ERβ = settings: expressed in COS-1 cells, cited from earlier work
human ERβ [2] = target: T1, human ERβ (Homo sapiens, UniProt Q92731); assay: [3H] E2 ligand binding competition; settings: IC50 for ERβ, competition with 30 nM [3H] E2, Fig. 6B
NRF1 (NRF-1) expression = assay: QRT-PCR of NRF1 in ERβ-transfected HepG2 cells; assay type: cell-based, human; settings: 10 nM E2 or 5 µM sterol, 24 h, Fig. 5B
[3] = test system: diethylnitrosamine-induced hepatic tumors; settings: 0.6% in the diet, rats; cited from earlier work
[4] = test system: TFF1 (pS2), PGR (PR), CTSD (cathepsin D) transcription; assay: QRT-PCR of endogenous ER-target genes in ERα-transfected HEK-293 cells; assay type: cell-based, human; settings: 10 nM E2 or 5 µM sterol, 24 h, Fig. 5A
[5] = test system: ZR-75-1 breast cancer xenografts; settings: twice daily s.c. injections of 0.3 mg, nude mice; cited from earlier work
human ERβ [6] = target: T1, human ERβ; assay: ERELUC transient transfection reporter assay, ERβ in HepG2 cells; assay type: cell-based; settings: 5 µM, 24 h, Fig. 1B; result in words
[7] = test system: ERα+ MCF-7 and triple-negative MDA-MB-231 and Hs578T breast cancer cells; settings: 100 µM; cited from earlier work
MCF-7 cells = settings: cited from earlier work
[8] = test system: NMU and DMBA induced tumors of the mammary gland; settings: oral, rats; cited from earlier work

T1 sequence (Q92731 whole entry): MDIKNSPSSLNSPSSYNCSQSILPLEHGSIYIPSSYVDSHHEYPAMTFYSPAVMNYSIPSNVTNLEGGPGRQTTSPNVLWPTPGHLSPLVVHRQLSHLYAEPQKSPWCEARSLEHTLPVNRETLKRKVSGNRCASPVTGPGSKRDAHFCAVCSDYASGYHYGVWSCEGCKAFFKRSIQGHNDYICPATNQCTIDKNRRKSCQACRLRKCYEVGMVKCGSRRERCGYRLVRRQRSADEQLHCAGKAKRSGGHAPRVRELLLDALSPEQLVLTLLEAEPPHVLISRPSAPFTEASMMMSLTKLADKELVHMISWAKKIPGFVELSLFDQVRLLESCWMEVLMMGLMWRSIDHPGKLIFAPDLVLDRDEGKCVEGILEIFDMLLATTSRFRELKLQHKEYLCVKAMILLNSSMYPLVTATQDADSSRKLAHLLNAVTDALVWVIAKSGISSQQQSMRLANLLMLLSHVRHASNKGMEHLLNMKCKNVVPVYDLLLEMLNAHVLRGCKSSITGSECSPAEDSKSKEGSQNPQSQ

C[C@]12CC[C@H](O)CC1=CC[C@@H]1[C@@H]2CC[C@]2(C)C(=O)CC[C@@H]12 [DHEA, 3β-hydroxy-androst-5-ene-17-one]
MCF-7 cell proliferation [1]: increased | Kd (ERβ; read-out: Kd for ERβ): ~500 nM | Ki (ERβ; read-out: Ki for ERβ): ~500 nM | IC50 (human ERβ [2]): 500 µM | NRF-1 mRNA expression (NRF1 (NRF-1) expression): statistically significant increase; also recorded: low induction | tumor cell growth [3]: inhibited tumor cell growth | CTSD (cathepsin D) expression [4]: increased | PGR (PR) expression [4]: increased | TFF1 (pS2) expression [4]: increased | estrone-stimulated growth of xenografts [5]: suppressed | ERELUC activity in ERβ-expressing HepG2 cells (human ERβ [6]): significantly induced | proliferation, cell cycle progression and migration [7]: inhibit | proliferation of MCF-7 cells (MCF-7 cells; 1–10 µM concentrations): stimulated proliferation | MCF-7 cell growth (MCF-7 cells; DHEA 0.5 µM, ADIOL 2 nM): stimulated | MCF-7 cell proliferation (MCF-7 cells; less than E2): increased cell proliferation | effect in the mammary gland after chemical induction of tumors [8]: anti-carcinogenic effects
